According to paper PMC10257182, “Discovery of senolytics using machine learning” (Nature Communications, 2023):
Where two headings read alike, the source gives them in different places.

What was measured:
Format in all cases: cell-based, human
[1] = tested on: senescent A549 cells (etoposide-induced); assay: Nuclei count senolytic assay, therapy-induced senescence (TIS) model, senescent cells; settings: Homo sapiens, A549, Senescent cells, mean, read-out: Mean % Cell Survival
In short: (§1)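 Nuclei counting by high-content imaging after 72 h compound treatment of senescent (etoposide-induced) versus control A549 cells. Top dose 10 μM final, lowest 10 nM.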

[2] = tested on: non-senescent control IMR90 ER:RAS cells; assay: Nuclei count (Hoechst, high content imaging) senolytic assay, OIS model, non-senescent control cells; settings: Homo sapiens
In short: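 We compared total nuclei counts between senescent and non-senescent IMR90 ER:RAS cells after 72 h compound exposure (10 nM–10 μM). Hoechst staining followed fixation and permeabilisation; ouabain served as senolytic positive control.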

[3] = tested on: non-senescent control A549 cells; assay: Nuclei count senolytic assay, TIS model, non-senescent control cells; settings: Homo sapiens, A549, Control cells, mean, read-out: Mean % Cell Survival
In short: as §1

`COc1cc(/C=C/C(=O)O[C@H]2CC[C@]34C[C@]35CC[C@]3(C)[C@@H]([C@H](C)CCC=C(C)C)CC[C@@]3(C)[C@@H]5CC[C@H]4C2(C)C)ccc1O` [Gamma oryzanol, gamma oryzanol] showed a viability at 10 µM ([1]; log (dose) [M] -5) of 96.8%, a viability at 4.68 µM ([1]; log (dose) [M] -5.33) of 100% and a viability at 2.19 µM ([1]; log (dose) [M] -5.66) of 105%. It also gave a viability at 1 µM ([1]; log (dose) [M] -6) of 106%, a viability at 0.468 µM ([1]; log (dose) [M] -6.33) of 107% and a viability at 0.219 µM ([1]; log (dose) [M] -6.66) of 105%. It also gave a viability at 0.1 µM ([1]; log (dose) [M] -7) of 114%, a viability at 0.0468 µM ([1]; log (dose) [M] -7.33) of 126% and a viability at 0.0219 µM ([1]; log (dose) [M] -7.66) of 61.5%. For the same compound, the viability at 0.01 µM ([1]; log (dose) [M] -8) was 76%, the viability at 10 µM ([2]; IMR-90, 72 h, Control, log (dose) [M] -5, 72 h, mean n=3 (Fig 3C), read-out: Mean % Cell Survival) was 87.1% and the viability at 4.677 µM ([2]; IMR-90, 72 h, Control, log (dose) [M] -5.33, 72 h, mean n=3 (Fig 3C), read-out: Mean % Cell Survival) was 92.9%. For the same compound, the viability at 2.188 µM ([2]; IMR-90, 72 h, Control, log (dose) [M] -5.66, 72 h, mean n=3 (Fig 3C), read-out: Mean % Cell Survival) was 89.6%, the viability at 1 µM ([2]; IMR-90, 72 h, Control, log (dose) [M] -6, 72 h, mean n=3 (Fig 3C), read-out: Mean % Cell Survival) was 86.2% and the viability at 0.4677 µM ([2]; IMR-90, 72 h, Control, log (dose) [M] -6.33, 72 h, mean n=3 (Fig 3C), read-out: Mean % Cell Survival) was 98.4%. For the same compound, the viability at 0.2188 µM ([2]; IMR-90, 72 h, Control, log (dose) [M] -6.66, 72 h, mean n=3 (Fig 3C), read-out: Mean % Cell Survival) was 99.1%, the viability at 0.1 µM ([2]; IMR-90, 72 h, Control, log (dose) [M] -7, 72 h, mean n=3 (Fig 3C), read-out: Mean % Cell Survival) was 109% and the viability at 0.04677 µM ([2]; IMR-90, 72 h, Control, log (dose) [M] -7.33, 72 h, mean n=3 (Fig 3C), read-out: Mean % Cell Survival) was 133%. For the same compound, the viability at 0.02188 µM ([2]; IMR-90, 72 h, Control, log (dose) [M] -7.66, 72 h, mean n=3 (Fig 3C), read-out: Mean % Cell Survival) was 118%, the viability at 0.01 µM ([2]; IMR-90, 72 h, Control, log (dose) [M] -8, 72 h, mean n=3 (Fig 3C), read-out: Mean % Cell Survival) was 115% and the viability at 0.2188 µM ([2]; IMR-90, Control cells, log (dose) [M] -6.66, individual replicates, SUP FIG 4C, read-out: % Cell Survival) was 93.2%. For the same compound, the viability at 10 µM ([2]; IMR-90, Control, log (dose) [M] -5, read-out: % Cell Survival) was 113%, the viability at 4.68 µM ([2]; IMR-90, Control, log (dose) [M] -5.33, read-out: % Cell Survival) was 105% and the viability at 0.1 µM ([2]; IMR-90, Control, log (dose) [M] -7, read-out: % Cell Survival) was 103%. It also gave a viability at 0.04677 µM ([2]; IMR-90, Control, log (dose) [M] -7.33, read-out: % Cell Survival) of 103%, a viability at 0.0219 µM ([2]; IMR-90, Control, log (dose) [M] -7.66, read-out: % Cell Survival) of 104% and a viability at 0.01 µM ([2]; IMR-90, Control, log (dose) [M] -8, read-out: % Cell Survival) of 100%. For the same compound, the viability at 10 µM ([3]; log (dose) [M] -5) was 37.8%, the viability at 4.68 µM ([3]; log (dose) [M] -5.33) was 35% and the viability at 2.19 µM ([3]; log (dose) [M] -5.66) was 87.4%. It also gave a viability at 1 µM ([3]; log (dose) [M] -6) of 76.1%, a viability at 0.468 µM ([3]; log (dose) [M] -6.33) of 75.3% and a viability at 0.219 µM ([3]; log (dose) [M] -6.66) of 109%. The viability at 0.1 µM ([3]; log (dose) [M] -7) was 105%, the viability at 0.0468 µM ([3]; log (dose) [M] -7.33) was 103% and the viability at 0.0219 µM ([3]; log (dose) [M] -7.66) was 106%. It also gave a viability at 0.01 µM ([3]; log (dose) [M] -8) of 103%.
